# Results taken from article PMC7822874, “Chemoprotective antimalarials identified through quantitative high-throughput screening of Plasmodium blood and liver stage parasites” (Scientific Reports, 2021).
# Like-named read-outs stand apart in the source and are kept apart here.
# Assays:
# [1] = system: P. falciparum Dd2 (clone B2) asexual blood stage parasites; test: P. falciparum Dd2 asexual blood stage SYBR Green-I 72 h proliferation assay (qHTS); format: cell-based, Plasmodium falciparum; settings: averaged P. falciparum asexual blood stage potency, log10 of AC50 in M
# [2] = system: P. berghei-ANKA-GFP-LucCON liver stage parasites in HepG2-A16-CD81EGFP cells; test: P. berghei liver stage Pb-Luc assay, Method 1 (UCSD, 1536-well); format: cell-based, Plasmodium berghei; settings: P. berghei liver stage, averaged response (percent); for Average P. berghei 1 µM response (%): the header list (r8) defines it as the 1 µM dose
# HepG2-A16-CD81EGFP cells = settings: averaged response (percent)
# [3] = HepG2, the header list (r10) describes it as the 1 µM dose
SMILES,Pf ABS Log AC50 (M) [1] [M],Average P. berghei 3 µM response( %) [2] [%],Average P. berghei 1 µM response (%) [2] [%],"Average HepG2 3 µM response( %) (HepG2-A16-CD81EGFP cells; HepG2, 3 µM dose) [%]",Average HepG2 3 µM response( %) (HepG2-A16-CD81EGFP cells; [3]) [%]
CCOC(=O)Cn1c2c(c(=N)c3c1CCC3)CCCC2 [MLS000702567],-4.912,104,95,104,104
CC1CCN(C(=O)CSc2nc(-c3ccc(C(C)C)cc3)no2)CC1 [NCGC00127906],-5.925,103,130,105,105
COc1ccccc1NC(=O)CN1CCN(C(=O)c2ccco2)CC1 [MLS000122729],-5.462,65,115,102,102
COc1ccc(N2CCN(c3cc(C4CC(N)C4)nc(N)n3)CC2(C)C)cc1 (centres unmarked) [NCGC00422579],-5.525,82,91,100,102
COc1cc(O)c(C(CCN2CCCC(C)C2)c2cc(OC)c(OC)c(OC)c2)c(OC)c1 (centres unmarked) [MLS000879467],-5.687,71,,86,89
O=C1c2cc(F)ccc2-n2c1nc1ccccc1c2=O [MLS001216278],-5.937,13,25,94,94
COc1ccc(C2=C(Nc3ccc(C)cc3)c3ccccc3C2=O)cc1 [MLS000563980],-5.637,25,81,89,94
COc1ccc2[nH]c(C[C@@H]3C[C@@H](C(C)C)[C@H](CNCc4ccccc4OC)C=C3C)nc2c1 [NCGC00392082],-5.025,47,75,97,99
COc1ccc(-c2noc(-c3cccn3CC(=O)Nc3ccccc3)n2)cc1F [NCGC00445500],-5.625,183,170,104,101
CCCCCC(=O)O[C@]1(C(C)=O)CC[C@H]2[C@@H]3CCC4=CC(=O)CC[C@]4(C)[C@H]3CC[C@@]21C [MLS000028438],-5.700,29,85,104,104
Cc1ccc2[nH]c(C(=O)Nc3ccc(F)cc3)cc2c1 [MLS001183414],-4.837,91,92,100,100
c1ccc2c(NCCc3c[nH]c4ccccc34)c3ccccc3nc2c1 [MLS001195935],-5.937,47,,82,91
OC(CN1CCN(c2ccccn2)CC1)Cn1c2ccc(Cl)cc2c2cc(Cl)ccc21 (centres unmarked) [MLS000529159],-5.612,77,108,102,102
C=C(C)COc1ccc(-c2ncnc(C(F)(F)F)c2-c2ccc(OC)cc2)c(O)c1 [MLS001216205],-5.462,105,107,103,92
Cc1ccc(NC(=O)CCS(=O)(=O)c2cc(Br)cc3c2N(C(=O)C2CC2)CC3)cc1 [NCGC00107230],-5.625,118,117,102,99
CCN1CCN(C(=O)c2ccc3c(c2)N(Cc2c(F)cccc2Cl)C(=O)c2ccccc2S3)CC1 [NCGC00108184],-8.075,76,94,107,105
CCN1CCN(C(=O)c2ccc3c(c2)N(Cc2ccccc2F)C(=O)c2ccccc2[S+]3[O-])CC1 (centres unmarked) [NCGC00109528],-6.075,103,106,98,98
COc1ccc(-c2nc3sc(CCNC(=O)c4ccc(C(C)(C)C)cc4)c(C)n3n2)cc1 [NCGC00137079],-5.675,84,132,98,98
CCOC(=O)C1=C(C)N=c2s/c(=C/c3ccc(OCC(=O)O)cc3)c(=O)n2C1c1cc(OC)c(OC)c(OC)c1 (centres unmarked) [MLS001178475],-5.737,74,98,99,99
CN(C)c1cc[n+](CC(=O)c2cccs2)cc1 [MLS001207444],-5.387,62,89,101,101
COC(=O)[C@H]1[C@H]2C[C@@H]3c4[nH]c5cc(OC)ccc5c4CCN3C[C@H]2C[C@@H](OC(=O)/C=C/c2cc(OC)c(OC)c(OC)c2)[C@@H]1OC [MLS002153878],-5.162,84,102,105,105
COc1ccc(C(CCN2CCCCC2)c2c(O)cc(OC)cc2OC)cc1 (centres unmarked) [MLS000879486],-5.962,88,105,88,92
Cc1cc(Nc2cccc(C(F)(F)F)c2)nc2ccc(NC(=O)c3cncc(Br)c3)cc12 [NCGC00124348],-5.625,38,76,101,107
CCC(CC)c1cc([C@H]2CN3CC[C@H]2C[C@@H]3CNC(C)=O)nc(-c2ccncc2)n1 [NCGC00394634],-4.814,53,49,106,107
CCOC(=O)c1cn(CC)c2cc(N3CCSCC3)c(F)cc2c1=O [MLS000038775],-6.012,21,,85,89
